Read-outs that look alike come from different tables or passages of the source.
Legend:
Type in all cases: cell-based
HL-60(TB) = assay: Human tumor cell line growth assay (SRB); details: Leukemia, 48 h; for CC50: read-out: LC50 (the source's name)
K-562 = assay: Human tumor cell line growth assay (SRB); details: K562, Leukemia, K-562, 48 h; for CC50: read-out: LC50 (the source's name)
RPMI-8226 = assay: Human tumor cell line growth assay (SRB); details: Homo sapiens; Leukemia, RPMI-8226, 48 h
[1] = Human tumor cell line growth assay (SRB); details: human, SR cells (leukemia), read-out: LC50
SR = assay: Human tumor cell line growth assay (SRB); details: Homo sapiens, Leukemia, 48 h
[2] = Human tumor cell line growth assay (SRB); details: human, HOP-62 cells (NSCLC), HOP-62, 48 h, read-out: LC50
HOP-62 = assay: Human tumor cell line growth assay (SRB); details: Homo sapiens; NSCLC, HOP-62, 48 h
[3] = Human tumor cell line growth assay (SRB); details: human, HOP-92 cells (NSCLC), HOP-92, 48 h
HOP-92 = assay: Human tumor cell line growth assay (SRB); details: Homo sapiens; NSCLC, HOP-92, 48 h
[4] = Human tumor cell line growth assay (SRB); details: human, NCI-H226 cells (NSCLC), NCI-H226, 48 h, read-out: LC50
NCI-H226 = assay: Human tumor cell line growth assay (SRB); details: Homo sapiens; NSCLC, NCI-H226, 48 h
[5] = Human tumor cell line growth assay (SRB); details: human, NCI-H23 cells (NSCLC), NCI-H23, 48 h, read-out: LC50
NCI-H23 = assay: Human tumor cell line growth assay (SRB); details: Homo sapiens; NSCLC, NCI-H23, 48 h
[6] = Human tumor cell line growth assay (SRB); details: human, HCC-2998 cells (colon), HCC-2998, 48 h, read-out: LC50
HCC-2998 = assay: Human tumor cell line growth assay (SRB); details: Homo sapiens; Colon, HCC-2998, 48 h
[7] = Human tumor cell line growth assay (SRB); details: human, SW-620 cells (colon), SW-620, 48 h
SW-620 = assay: Human tumor cell line growth assay (SRB); details: Homo sapiens; Colon, SW-620, 48 h
[8] = Human tumor cell line growth assay (SRB); details: human, SNB-75 cells (CNS), SNB-75, 48 h
SNB-75 = assay: Human tumor cell line growth assay (SRB); details: Homo sapiens; CNS, SNB-75, 48 h
[9] = Human tumor cell line growth assay (SRB); details: human, LOX IMVI cells (melanoma), read-out: LC50
LOX IMVI = assay: Human tumor cell line growth assay (SRB); details: Homo sapiens, Melanoma, 48 h
[10] = Human tumor cell line growth assay (SRB); details: human, MALME-3M cells (melanoma), read-out: LC50
MALME-3M = assay: Human tumor cell line growth assay (SRB); details: Homo sapiens, Melanoma, 48 h
[11] = Human tumor cell line growth assay (SRB); details: human, IGR-OV1 cells (ovarian), IGR-OV1, 48 h, read-out: LC50
IGR-OV1 = assay: Human tumor cell line growth assay (SRB); details: Homo sapiens, IGROV-1; Ovarian, IGR-OV1, 48 h
[12] = Human tumor cell line growth assay (SRB); details: human, OVCAR-3 cells (ovarian), OVCAR-3, 48 h, read-out: LC50
OVCAR-3 = assay: Human tumor cell line growth assay (SRB); details: Homo sapiens; Ovarian, OVCAR-3, 48 h
[13] = Human tumor cell line growth assay (SRB); details: human, OVCAR-5 cells (ovarian), OVCAR-5, 48 h, read-out: LC50
OVCAR-5 = assay: Human tumor cell line growth assay (SRB); details: Homo sapiens; Ovarian, OVCAR-5, 48 h
OVCAR-8 = assay: Human tumor cell line growth assay (SRB); details: Ovarian, OVCAR-8, 48 h
786-0 = assay: Human tumor cell line growth assay (SRB); details: Renal, 786-0, 48 h
CAKI-1 = assay: Human tumor cell line growth assay (SRB); details: Renal, CAKI-1, 48 h; for CC50: read-out: LC50 (the source's name)
RXF 393 = assay: Human tumor cell line growth assay (SRB); details: Renal, RXF 393, 48 h; for CC50: read-out: LC50 (the source's name)
TK-10 = assay: Human tumor cell line growth assay (SRB); details: Renal, TK-10, 48 h; for CC50: read-out: LC50 (the source's name)
MDA-MB-468 = assay: Human tumor cell line growth assay (SRB); details: Breast, MDA-MB-468, 48 h; for CC50: read-out: LC50 (the source's name)
HS 578T = assay: Human tumor cell line growth assay (SRB); details: Breast, 48 h; for CC50: read-out: LC50 (the source's name)
Human tumor cell lines = assay: Human tumor cell line growth assay (SRB), summary over the panel; details: overall over the panel

## COc1ccc2c(c1)c1nc3cc(C)c(C)cc3nc1n2CCN(C)C [JBA-094, 2-(9-methoxy-2,3-dimethyl-6H-indolo[2,3-b]quinoxalin-6-yl)-N,N-dimethylethanamine]
HL-60(TB)
  GI50: 1.18 µM
  CC50: > 100 µM
K-562
  GI50: 0.444 µM
  CC50: > 100 µM
RPMI-8226
  GI50: 0.64 µM
[1]
  CC50 at 48 h: > 100 µM
SR
  GI50: 0.409 µM
[2]
  CC50 at 48 h: > 100 µM
HOP-62
  GI50: 1.19 µM
[3]
  LC50 at 48 h: 6.08 µM
HOP-92
  GI50: 0.238 µM
[4]
  CC50 at 48 h: 8.2 µM
NCI-H226
  GI50: 1.24 µM
[5]
  CC50 at 48 h: 8.2 µM
NCI-H23
  GI50: 0.973 µM
[6]
  CC50 at 48 h: 6.32 µM
HCC-2998
  GI50: 1.08 µM
[7]
  LC50 (50% lethal concentration) at 48 h: 5.53 µM
SW-620
  GI50: 0.454 µM
[8]
  LC50 (concentration killing 50% of cells) at 48 h: 23.8 µM
SNB-75
  GI50: 1.23 µM
[9]
  CC50 at 48 h: 6.07 µM
LOX IMVI
  GI50: 0.336 µM
[10]
  CC50 at 48 h: 5.77 µM
MALME-3M
  GI50: 1.11 µM
[11]
  CC50 at 48 h: 5.41 µM
IGR-OV1
  GI50: 0.396 µM
[12]
  CC50 at 48 h: 6.13 µM
OVCAR-3
  GI50: 1.26 µM
[13]
  CC50 at 48 h: 5.28 µM
OVCAR-5
  GI50: 1.12 µM
OVCAR-8
  GI50: 0.531 µM
786-0
  GI50: 1.04 µM
  LC50: 6.52 µM
CAKI-1
  GI50: 0.541 µM
  CC50: 4.93 µM
RXF 393
  GI50: 1.18 µM
  CC50: 6.9 µM
TK-10
  GI50: 1.96 µM
  CC50: 6.92 µM
MDA-MB-468
  GI50: 0.749 µM
  CC50: 6.9 µM
HS 578T
  GI50: 1.93 µM
  CC50: 78.7 µM

## Cc1cc2nc3c4cc(N)ccc4n(CCN(C)C)c3nc2cc1C [JBD-136, 6-(2-(dimethylamino)ethyl)-2,3-dimethyl-6H-indolo [2,3-b]quinoxalin-9-amine]
HL-60(TB)
  GI50: 1.21 µM
  CC50: 21.9 µM
K-562
  GI50: 0.426 µM
  CC50: 65.6 µM
RPMI-8226
  GI50: 0.74 µM
[1]
  CC50 at 48 h: > 100 µM
SR
  GI50: 0.239 µM
[2]
  CC50 at 48 h: > 100 µM
HOP-62
  GI50: 1.14 µM
[3]
  LC50 at 48 h: > 100 µM
HOP-92
  GI50: 0.912 µM
[4]
  CC50 at 48 h: > 100 µM
NCI-H226
  GI50: 1.32 µM
[5]
  CC50 at 48 h: 33 µM
NCI-H23
  GI50: 1.08 µM
[6]
  CC50 at 48 h: 21.9 µM
HCC-2998
  GI50: 1.02 µM
[7]
  LC50 (50% lethal concentration) at 48 h: 83.8 µM
SW-620
  GI50: 0.389 µM
[8]
  LC50 (concentration killing 50% of cells) at 48 h: 24.8 µM
SNB-75
  GI50: 1.25 µM
[9]
  CC50 at 48 h: 21.8 µM
LOX IMVI
  GI50: 0.494 µM
[10]
  CC50 at 48 h: 7.43 µM
MALME-3M
  GI50: 1.27 µM
[11]
  CC50 at 48 h: > 100 µM
IGR-OV1
  GI50: 0.596 µM
[12]
  CC50 at 48 h: 75.8 µM
OVCAR-3
  GI50: 1.56 µM
[13]
  CC50 at 48 h: > 100 µM
OVCAR-5
  GI50: 1.24 µM
OVCAR-8
  GI50: 0.556 µM
OVCAR-8; read-out: LC50 (the source's name)
  CC50: > 100 µM
786-0
  GI50: 1.52 µM
  LC50: 38.5 µM
CAKI-1
  GI50: 0.427 µM
  CC50: 85.5 µM
RXF 393
  GI50: 1.13 µM
  CC50: 6.4 µM
TK-10
  GI50: 2.26 µM
  CC50: > 100 µM
MDA-MB-468
  GI50: 1.03 µM
  CC50: 8.28 µM
HS 578T
  GI50: 2.12 µM
  CC50: > 100 µM
Human tumor cell lines
  growth inhibition (GI50), comparison in words: slightly improved growth inhibition and cytotoxicity compared to B220

— patent US20230312578A1, “6H-INDOLO[2,3-B]QUINOXALINE DERIVATIVES USEFUL IN THERAPY” (Vironova Medical AB, priority 2020, published 2023)
